Measured values published in US20220370515A1, “MEDICAL COMPOSITIONS AND THEIR USE IN TREATING PANCREATIC CANCER” (BIOMILLENIA SAS, priority 2019, published 2022).
“Also recorded” adds a separate entry of the source.

Legend:
Assay type in all cases: cell-based
Malassezia restricta [1] = experiment: Modified disc diffusion assay with living culture (Example 2); conditions: M. restricta lawn; discs soaked with 15 ul exponentially growing Acetobacter culture or ketoconazole 1 mg/mL in DMSO; 5 days incubation
Procedure: (§1) FIG. 1|Inhibition assays of M. restricta and M. globose by growth of Acetobacter fabarum. Discs were soaked with ketoconazole (1 mg/ml in DMSO) or exponentially growing Acetobacter fabarum culture and placed on agar plates containing a soft layer inoculated with a single culture of the different Malassezia species to be tested. In the upper panel, inhibition of Malassezia globosa is shown; in the bottom panel, Malassezia restricta is shown.
(§2) In order to identify strains whose growth inhibits Malassezia, inhibition assays were performed using a modified disc diffusion method. This method is similar to the classical disk diffusion method that consists in depositing discs imbibed with potential inhibitory substances on Petri plates containing a strain of interest, except that the disks were imbibed with a living culture of an Acetobacter strain. After optimal growth of the strain of interest, growth inhibition can be observed around discs on which the growth of inhibitory bacteria has occurred. Ketoconazole (at 1 mg/mL in DMSO) was used as a positive control for Malassezia growth inhibition. The effect of growth of Acetobacter was tested on Malassezia restricta and Malassezia globosa. All Malassezia strains were streaked from −80° C. stock on Modified Leeming and Notman (MLN) agar plates and incubated 10 days at 30° C. […]

Malassezia globosa [2] = experiment: as above; conditions: M. globosa lawn; discs soaked with 15 ul exponentially growing Acetobacter culture or ketoconazole 1 mg/mL in DMSO; 5 days incubation
Procedure: as §1, §2

Malassezia furfur = experiment: Disc diffusion inhibition assay (Example 1); conditions: M. furfur lawn; 6 mm discs soaked with 15 ul supernatant or ketoconazole 1 mg/ml in DMSO; 5 days incubation
Procedure: (§3) FIG. 1|Inhibition assays of the fungicide ketoconazole as positive control for inhibition and Kazachstania unispora supernatant on M. sympodialis, M. furfur, M. restricta and M. globosa. Inhibition assays were performed using the disc diffusion method. Discs were soaked with ketoconazole (1 mg/ml) or K. unispora supernatant and placed on agar plates containing a soft layer inoculated with a single culture of the different Malassezia species to be tested.
(§4) In order to identify strains inhibiting Malassezia growth, inhibition assays were performed using the disc diffusion method. This method consists in disposing discs imbibed with potential inhibitory substances on Petri plates containing a strain of interest. After optimal growth of the strain of interest, growth inhibition can be observed around discs soaked with substances having an inhibitory effect. Potential inhibitory substances tested in this experiment are supernatants obtained after individually culturing a collection of fungal and bacterial strains. After an incubation of 10 days in their optimal broth, each culture was centrifuged and the supernatant was filtered and further stored at −20° C. Ketoconazole, a fungicide, was used as a positive control for Malassezia growth inhibition. It was diluted in dimethyl sulfoxide at 1 mg/ml. The collection of supernantants was tested on the following species from the genus Malassezia: Malassezia restricta, Malassezia globosa, Malassezia furfur and Malassezia sympodialis. All strains were streaked from −80° C. stock on Modified Leeming and Notman (MLN) agar plates and incubated 10 days at 30° C. A 5 ml liquid culture of each species was made in MLN broth and incubated at 30° C. for 2 days for M. furfur and M. sympodialis and 5 days for M. restricta and M. globosa. To allow a lawn growth of the different Malassezia strains tested, Petri plates were prepared as follows: a bottom layer of 50 ml Modified Sabouraud Dextrose (MSD) agar was poured in Petri plates. The soft agar, constituting the top layer, was a mix of 12.5 ml MSD agar, 10.5 ml MLN broth and 2 ml of liquid culture. Plates were allowed to dry for one hour, then, 6 mm-diameter Whatman™ discs were soaked with 15 ul of each thawed supernatants and ketoconazole and placed on the soft agar plate containing the solidified Malassezia monoculture layer. After an incubation of 5 days, inhibition area could be easily observed around discs. […] The strain from which the inhibitory supernatant has been produced was further sequenced using the Sanger technology. The internal transcribed spacer (ITS) of this strain was taxonomically assigned to the yeast Kazachstania unispora (BLASTn, 99% identity, 99% query cover, e-value 0.00).

Malassezia restricta [3] = experiment: Disc diffusion inhibition assay (Example 1); conditions: M. restricta lawn; 6 mm discs soaked with 15 ul supernatant or ketoconazole 1 mg/ml in DMSO; 5 days incubation
Procedure: as §3, §4

Malassezia sympodialis = experiment: Disc diffusion inhibition assay (Example 1); conditions: M. sympodialis lawn; 6 mm discs soaked with 15 ul supernatant or ketoconazole 1 mg/ml in DMSO; 5 days incubation
Procedure: as §3, §4

Malassezia globosa [4] = experiment: Disc diffusion inhibition assay (Example 1); conditions: M. globosa lawn; 6 mm discs soaked with 15 ul supernatant or ketoconazole 1 mg/ml in DMSO; 5 days incubation
Procedure: as §3, §4

CC(=O)N1CCN(c2ccc(OCC3COC(Cn4ccnc4)(c4ccc(Cl)cc4Cl)O3)cc2)CC1 (stereo not drawn) [ketoconazole] was tested, and the “growth inhibition (inhibition halo around disc)” value (from here on “growth inhibition”) (Malassezia restricta [1]) was “inhibits growth of both Malassezia species tested; also recorded: inhibited both Malassezia restricta and Malassezia globose”, the “growth inhibition” value (Malassezia globosa [2]) was “inhibits growth of both Malassezia species tested; also recorded: inhibited both Malassezia restricta and Malassezia globose” and the “growth inhibition” value (Malassezia furfur) was “inhibits growth of all 4 Malassezia species tested; also recorded: inhibited all 4 Malassezia species tested”. The “growth inhibition” value (Malassezia restricta [3]) was “inhibits growth of all 4 Malassezia species tested; also recorded: inhibited all 4 Malassezia species tested”, the “growth inhibition” value (Malassezia sympodialis) was “inhibits growth of all 4 Malassezia species tested; also recorded: inhibited all 4 Malassezia species tested” and the “growth inhibition” value (Malassezia globosa [4]) was “inhibits growth of all 4 Malassezia species tested; also recorded: inhibited all 4 Malassezia species tested”.
